{
  "source": "patent US9504255B2",
  "about": "“Physical antimicrobial method” (priority 2012, dated 2016)",
  "key": {"MSSA": {"tested_on": "MSSA", "assay": "Drug-resistance experiment on pathogens isolated from the Department of Burns (NCCLS 1997)", "assay_type": "cell-based, Staphylococcus aureus", "settings": "clinical isolates"}, "Enterobacter cloacae": {"tested_on": "Enterobacter cloacae", "assay": "Drug-resistance experiment on pathogens isolated from the Department of Burns (NCCLS 1997)", "assay_type": "cell-based", "settings": "clinical isolates"}, "aerogenes": {"tested_on": "aerogenes", "assay": "Drug-resistance experiment on pathogens isolated from the Department of Burns (NCCLS 1997)", "assay_type": "cell-based, Enterobacter aerogenes", "settings": "clinical isolates"}, "Escherichia coli": {"tested_on": "Escherichia coli", "assay": "Drug-resistance experiment on pathogens isolated from the Department of Burns (NCCLS 1997)", "assay_type": "cell-based", "settings": "clinical isolates"}, "Acinetobacter": {"tested_on": "Acinetobacter", "assay": "Drug-resistance experiment on pathogens isolated from the Department of Burns (NCCLS 1997)", "assay_type": "cell-based", "settings": "clinical isolates"}, "[1]": {"tested_on": "patients clinically diagnosed with impetigo", "assay": "Experiment of treatment of impetigo", "assay_type": "in vivo, human", "settings": "to the affected area 2 times a day, for 7 days", "method": "1652 patients clinically diagnosed with impetigo by the Department of Dermatology in the hospital were chosen and randomly divided into experimental group (n=1032) and control group (n=620). The experimental group was treated with the antimicrobial composition of the invention to the affected area, and the control group was treated with mupirocin, 2 times a day, for 7 days."}, "Pseudomonas aeruginosa": {"tested_on": "Pseudomonas aeruginosa", "assay": "Drug-resistance experiment on pathogens isolated from the Department of Burns (NCCLS 1997)", "assay_type": "cell-based", "settings": "clinical isolates"}},
  "data": [
    {"compound": "penicillin", "values": [
      {"measurement": "resistance rate of MSSA", "setting": "MSSA", "value": 87.0, "unit": "%"}
    ]},
    {"compound": "Cc1nnc(SCC2=C(C(=O)O)N3C(=O)[C@@H](NC(=O)Cn4cnnn4)[C@H]3SC2)s1", "note": "[cefazolin]", "values": [
      {"measurement": "resistance rate of Enterobacter cloacae", "setting": "Enterobacter cloacae", "value": 89.3, "unit": "%"},
      {"measurement": "resistance rate of aerogenes", "setting": "aerogenes", "value": 79.3, "unit": "%"},
      {"measurement": "resistance rate of Escherichia coli", "setting": "Escherichia coli", "value": 40.0, "unit": "%"}
    ]},
    {"compound": "CCN1CCN(C(=O)N[C@@H](C(=O)N[C@@H]2C(=O)N3[C@@H]2SC(C)(C)[C@@H]3C(=O)O)c2ccccc2)C(=O)C1=O", "note": "[piperacillin]", "values": [
      {"measurement": "resistance rate of Acinetobacter", "setting": "Acinetobacter", "value": 93.3, "unit": "%"}
    ]},
    {"compound": "C/C(=C\\C(=O)OCCCCCCCCC(=O)O)C[C@@H]1OC[C@H](C[C@@H]2O[C@H]2[C@@H](C)[C@H](C)O)[C@@H](O)[C@H]1O", "note": "[mupirocin]", "values": [
      {"measurement": "effective rate", "setting": "[1]", "value": 85, "unit": "%"}
    ]},
    {"compound": "piperazine amoxicillin", "values": [
      {"measurement": "resistance rate of Pseudomonas aeruginosa", "setting": "Pseudomonas aeruginosa", "value": 34.1, "unit": "%"}
    ]},
    {"compound": "CC1(C)S[C@@H]2[C@H](NC(=O)[C@H](N)c3ccccc3)C(=O)N2[C@H]1C(=O)O", "note": "[ampicillin]", "values": [
      {"measurement": "resistance rate of Escherichia coli", "setting": "Escherichia coli", "value": 80.1, "unit": "%"}
    ]},
    {"compound": "gentamicin", "values": [
      {"measurement": "resistance rate of Pseudomonas aeruginosa", "setting": "Pseudomonas aeruginosa", "value": 35.3, "unit": "%"},
      {"measurement": "resistance rate of Enterobacter cloacae", "setting": "Enterobacter cloacae", "value": 28.1, "unit": "%"},
      {"measurement": "resistance rate of aerogenes", "setting": "aerogenes", "value": 8.2, "unit": "%"},
      {"measurement": "resistance rate of Escherichia coli", "setting": "Escherichia coli", "value": 40.9, "unit": "%"},
      {"measurement": "resistance rate of Acinetobacter", "setting": "Acinetobacter", "value": 18.9, "unit": "%"}
    ]},
    {"compound": "CC(C)(O/N=C(\\C(=O)N[C@@H]1C(=O)N2C(C(=O)[O-])=C(C[n+]3ccccc3)CS[C@H]12)c1csc(N)n1)C(=O)O", "note": "[ceftazidime]", "values": [
      {"measurement": "resistance rate of Pseudomonas aeruginosa", "setting": "Pseudomonas aeruginosa", "value": 21.7, "unit": "%"},
      {"measurement": "resistance rate of Acinetobacter", "setting": "Acinetobacter", "value": 21.2, "unit": "%"}
    ]}
  ]
}
